The record followed here is patent US10799605B2 (3B PHARMACEUTICALS GMBH, priority 2014, dated 2020).

In one test the target is CB1 (h) (Homo sapiens (Human), UniProt P21554). In words: ExpresSProfile: cannabinoid receptor 1, agonist radioligand. In kind it is binding. As to conditions: Reference Compound.
A further test has as its target AT1 (h) (Homo sapiens (Human), UniProt P30556). In words: ExpresSProfile: angiotensin receptor 1, antagonist radioligand. In kind it is binding. Particulars: Reference Compound.
In the next test the target is 5-HT3 (h) (Homo sapiens (Human), UniProt P46098). In words: ExpresSProfile: 5-hydroxytryptamine channel 3, antagonist radioligand. The class given is binding. Particulars: Reference Compound.
In another test the target is M3 (h) (Homo sapiens (Human), UniProt P20309). In words: ExpresSProfile: muscarinic receptor 3, antagonist radioligand. In kind it is binding. Particulars: Reference Compound.
The next test deals with 5-HT2B (h) (Homo sapiens (Human), UniProt P41595). In words: ExpresSProfile: 5-hydroxytryptamine receptor 2B, agonist radioligand. The class given is binding. As to conditions: Reference Compound.
The subject of a further test is KV channel. In words: ExpresSProfile: KV channel, antagonist radioligand. The class given is binding. Particulars: Reference Compound.
In the next test the test system is alpha 1 (non-selective). In words: ExpresSProfile: alpha1 adrenergic receptor, antagonist radioligand. In kind it is binding. Particulars: Reference Compound.
In the next test the target is B2 (h) (Homo sapiens (Human), UniProt P30411). In words: ExpresSProfile: bradykinin receptor 2, agonist radioligand. As to conditions: Reference Compound. The class given is binding.
The test system of another test is alpha 2 (non-selective). In words: ExpresSProfile: alpha2 adrenergic receptor, antagonist radioligand. The class given is binding. As to conditions: Reference Compound.
A further test addresses EP4 (h) (Homo sapiens (Human), UniProt P35408). In words: ExpresSProfile: prostaglandin e receptor type 4, agonist radioligand. In kind it is binding. Particulars: Reference Compound.
The next test concerns the target beta 1 (h) (Homo sapiens (Human), UniProt P08588). In words: ExpresSProfile: beta1 adrenergic receptor, agonist radioligand. The class given is binding. As to conditions: Reference Compound.
The target in a further test is dopamine transporter (h) (Homo sapiens (Human), UniProt Q01959). In words: ExpresSProfile: dopamine transporter, antagonist radioligand. In kind it is binding. Particulars: Reference Compound.
The next test addresses M2 (h) (Homo sapiens (Human), UniProt P08172). In words: ExpresSProfile: muscarinic receptor 2, antagonist radioligand. The class given is binding. As to conditions: Reference Compound.
A further test concerns the target 5-HT1B (Rattus norvegicus, UniProt P28564). In words: ExpresSProfile: 5-hydroxytryptamine receptor 1B, antagonist radioligand. As to conditions: Reference Compound. In kind it is binding.
In another test the target is 5-HT6 (h) (Homo sapiens (Human), UniProt P50406). In words: ExpresSProfile: 5-hydroxytryptamine receptor 6, agonist radioligand. Particulars: Reference Compound. The class given is binding.
A further test addresses D1 (h) (Homo sapiens (Human), UniProt P21728). In words: ExpresSProfile: dopamine receptor 1, antagonist radioligand. Particulars: Reference Compound. In kind it is binding.
For a further test, the target named is mu (MOP) (h) (Homo sapiens (Human), UniProt P35372). In words: ExpresSProfile: mu opioid receptor, agonist radioligand. The class given is binding. Particulars: Reference Compound.
In another test the test system is SKCa channel. In words: ExpresSProfile: SKCa channel, antagonist radioligand. In kind it is binding. As to conditions: Reference Compound.
A further test concerns BZD (central). In words: ExpresSProfile: benzodiazepine, agonist radioligand. Particulars: Reference Compound. In kind it is binding.
The target in another test is NK3 (h) (Homo sapiens (Human), UniProt P29371). In words: ExpresSProfile: neurokinin receptor 3, antagonist radioligand. Particulars: Reference Compound. In kind it is binding.
A further test has as its target MT1 (ML1A) (h) (Homo sapiens (Human), UniProt P48039). In words: ExpresSProfile: melatonin receptor 1, agonist radioligand. The class given is binding. Particulars: Reference Compound.
In the next test the target is 5-HT2A (h) (Homo sapiens (Human), UniProt P28223). In words: ExpresSProfile: 5-hydroxytryptamine receptor 2A, antagonist radioligand. The class given is binding. As to conditions: Reference Compound.
Another test concerns the target D2S (h) (Homo sapiens (Human), UniProt P14416). In words: ExpresSProfile: dopamine receptor 2S, antagonist radioligand. The class given is binding.
The target in test [1] is T1, NTR1 (Homo sapiens (Human), UniProt P30989). In words: Functional Ca2+ mobilisation assay (example part II). Particulars: antagonist assay. The class given is cell-based. In a few lines: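 HT29 or NTR1-expressing HEK293 cells loaded with Ca5 dye for 1 h at 37 °C in buffer at pH 7.4, and fluorescence recorded for about 90 s after addition. EC50 derived from agonist serial dilutions; IC50 from antagonists pre-incubated 30 min before an EC80 agonist challenge.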

Test [2] addresses T1, NTR1. In words: Radioligand binding assay NTR1 (example part II). As to conditions: 0.05 nM 125I-(Tyr3-neurotensin), 60 min at 4° C.; read-out: IC50 [nM] RLB. On the procedure: In order to determine the binding affinity of compounds comprising a radiolabel for NTR1, a radioligand binding assay was carried out. A radioligand is a radioactive biochemical substance that is used for diagnosis or for research-oriented study of cellular receptor systems of the body. In […] systems it is often used to quantify the binding of a test molecule to the binding site of radioligand. The higher the affinity of the molecule, the more radioligand is displaced from the binding site. The amount of bound radioligand can be measured by scintillation counting and thereby quantified. This assay is commonly used to calculate binding constants of molecules to receptors.
The NTR1 radioligand binding assay was performed by Cerep (Celle l'Evescault, France; Catalog reference 0109) according to Vita et al., FEBS Lett., 1993, 317, 139-142. NTR1 was prepared from CHO cells recombinantly expressing the human receptor and incubated with 0.05 nM ^125I-(Tyr^3-neurotensin) and serial dilutions of the test compounds. […] The result for each test compound is expressed as IC50 concentration and provides a measure for the affinity of the test compound for NTR1.

For the next test, the system named is sst (non-selective). In words: ExpresSProfile: somatostatin receptor, agonist radioligand. In kind it is binding. Particulars: Reference Compound.
For a further test, the system named is Cl-channel (GABA-gated). In words: ExpresSProfile: Cl-channel, antagonist radioligand. The class given is binding. As to conditions: Reference Compound.
For a further test, the target named is CXCR2 (IL-8B) (h) (Homo sapiens (Human), UniProt P25025). In words: ExpresSProfile: C-X-C chemokine receptor type 2, agonist radioligand. Particulars: Reference Compound. The class given is binding.
A further test has as its system GABA (non-selective). In words: ExpresSProfile: GABA, agonist radioligand. The class given is binding. Particulars: Reference Compound.
A further test concerns the target NK2 (h) (Homo sapiens (Human), UniProt P21452). In words: ExpresSProfile: neurokinin receptor 2, agonist radioligand. In kind it is binding. As to conditions: Reference Compound.

T1 sequence (P30989 whole entry): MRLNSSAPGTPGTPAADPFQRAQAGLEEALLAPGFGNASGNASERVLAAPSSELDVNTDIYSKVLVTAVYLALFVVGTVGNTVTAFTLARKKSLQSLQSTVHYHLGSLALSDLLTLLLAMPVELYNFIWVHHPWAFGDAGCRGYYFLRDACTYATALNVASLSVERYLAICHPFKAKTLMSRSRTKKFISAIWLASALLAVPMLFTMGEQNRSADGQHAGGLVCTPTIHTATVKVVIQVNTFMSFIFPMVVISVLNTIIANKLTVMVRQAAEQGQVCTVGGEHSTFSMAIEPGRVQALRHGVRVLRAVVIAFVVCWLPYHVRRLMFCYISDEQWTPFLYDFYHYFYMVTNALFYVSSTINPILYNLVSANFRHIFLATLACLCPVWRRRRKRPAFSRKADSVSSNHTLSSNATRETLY
Chain of 5-HT2B (h) (P41595 whole entry): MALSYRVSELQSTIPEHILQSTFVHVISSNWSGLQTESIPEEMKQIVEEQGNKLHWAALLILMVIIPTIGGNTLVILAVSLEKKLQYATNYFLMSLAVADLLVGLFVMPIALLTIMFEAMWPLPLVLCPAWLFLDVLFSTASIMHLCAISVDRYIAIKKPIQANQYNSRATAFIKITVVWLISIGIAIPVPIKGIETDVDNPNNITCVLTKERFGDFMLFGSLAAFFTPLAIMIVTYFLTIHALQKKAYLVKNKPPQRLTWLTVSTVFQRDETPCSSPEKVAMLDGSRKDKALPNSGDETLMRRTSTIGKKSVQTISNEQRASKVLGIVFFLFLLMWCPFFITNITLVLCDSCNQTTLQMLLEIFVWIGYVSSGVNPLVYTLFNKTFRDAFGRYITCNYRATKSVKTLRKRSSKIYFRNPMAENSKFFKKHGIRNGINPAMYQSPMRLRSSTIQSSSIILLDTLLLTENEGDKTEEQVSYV
Chain of dopamine transporter (h) (Q01959 whole entry): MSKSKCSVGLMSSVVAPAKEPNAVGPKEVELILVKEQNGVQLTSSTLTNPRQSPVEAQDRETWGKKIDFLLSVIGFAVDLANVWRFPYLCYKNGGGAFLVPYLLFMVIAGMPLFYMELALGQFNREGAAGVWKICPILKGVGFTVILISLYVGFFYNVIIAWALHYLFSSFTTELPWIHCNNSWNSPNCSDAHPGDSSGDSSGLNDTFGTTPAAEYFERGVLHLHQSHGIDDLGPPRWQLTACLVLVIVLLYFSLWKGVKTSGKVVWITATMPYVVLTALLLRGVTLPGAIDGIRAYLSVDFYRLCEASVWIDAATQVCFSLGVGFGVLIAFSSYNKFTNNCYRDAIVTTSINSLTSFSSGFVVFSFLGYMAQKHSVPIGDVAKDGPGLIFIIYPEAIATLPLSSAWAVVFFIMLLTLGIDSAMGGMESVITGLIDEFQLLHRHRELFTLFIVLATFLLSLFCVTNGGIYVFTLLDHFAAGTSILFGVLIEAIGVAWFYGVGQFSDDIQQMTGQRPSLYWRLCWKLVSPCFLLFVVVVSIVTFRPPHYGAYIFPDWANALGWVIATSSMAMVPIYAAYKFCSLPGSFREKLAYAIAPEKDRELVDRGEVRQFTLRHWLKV
Chain of beta 1 (h) (P08588 whole entry): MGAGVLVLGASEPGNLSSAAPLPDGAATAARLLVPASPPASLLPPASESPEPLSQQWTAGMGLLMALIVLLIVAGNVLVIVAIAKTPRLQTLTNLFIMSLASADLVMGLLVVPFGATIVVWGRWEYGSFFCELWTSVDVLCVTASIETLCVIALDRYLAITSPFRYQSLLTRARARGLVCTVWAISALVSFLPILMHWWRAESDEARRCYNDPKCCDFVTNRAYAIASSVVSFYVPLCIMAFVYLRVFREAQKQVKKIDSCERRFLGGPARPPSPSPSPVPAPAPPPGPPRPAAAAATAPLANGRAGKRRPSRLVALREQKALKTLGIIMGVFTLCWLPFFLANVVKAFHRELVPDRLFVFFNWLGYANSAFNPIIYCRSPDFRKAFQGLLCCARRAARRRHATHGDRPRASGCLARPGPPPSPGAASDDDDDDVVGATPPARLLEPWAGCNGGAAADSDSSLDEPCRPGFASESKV
Chain of NK3 (h) (P29371 whole entry): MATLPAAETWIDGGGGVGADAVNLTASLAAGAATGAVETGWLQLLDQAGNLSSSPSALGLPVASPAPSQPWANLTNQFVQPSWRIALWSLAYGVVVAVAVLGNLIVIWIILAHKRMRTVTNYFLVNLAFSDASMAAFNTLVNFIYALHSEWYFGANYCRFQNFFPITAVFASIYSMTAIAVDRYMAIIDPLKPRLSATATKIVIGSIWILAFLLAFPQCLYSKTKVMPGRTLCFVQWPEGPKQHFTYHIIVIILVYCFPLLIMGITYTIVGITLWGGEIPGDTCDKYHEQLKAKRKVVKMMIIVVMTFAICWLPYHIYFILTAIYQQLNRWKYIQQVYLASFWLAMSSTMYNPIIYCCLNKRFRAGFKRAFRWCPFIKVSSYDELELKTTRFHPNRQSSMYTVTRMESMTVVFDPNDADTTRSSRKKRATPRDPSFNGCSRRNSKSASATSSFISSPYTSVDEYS
Chain of 5-HT6 (h) (P50406 whole entry): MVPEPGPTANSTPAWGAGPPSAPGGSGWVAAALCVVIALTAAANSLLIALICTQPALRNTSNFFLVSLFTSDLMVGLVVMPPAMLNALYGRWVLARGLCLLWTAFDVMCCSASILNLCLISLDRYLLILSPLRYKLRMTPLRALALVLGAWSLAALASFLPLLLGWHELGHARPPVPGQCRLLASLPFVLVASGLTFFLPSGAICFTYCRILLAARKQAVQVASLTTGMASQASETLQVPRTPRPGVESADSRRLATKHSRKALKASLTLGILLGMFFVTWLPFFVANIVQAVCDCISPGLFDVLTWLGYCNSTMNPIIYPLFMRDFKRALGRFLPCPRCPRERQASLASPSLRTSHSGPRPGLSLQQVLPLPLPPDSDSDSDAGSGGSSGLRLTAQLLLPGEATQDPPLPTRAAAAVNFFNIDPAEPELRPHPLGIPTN
Chain of mu (MOP) (h) (P35372 whole entry): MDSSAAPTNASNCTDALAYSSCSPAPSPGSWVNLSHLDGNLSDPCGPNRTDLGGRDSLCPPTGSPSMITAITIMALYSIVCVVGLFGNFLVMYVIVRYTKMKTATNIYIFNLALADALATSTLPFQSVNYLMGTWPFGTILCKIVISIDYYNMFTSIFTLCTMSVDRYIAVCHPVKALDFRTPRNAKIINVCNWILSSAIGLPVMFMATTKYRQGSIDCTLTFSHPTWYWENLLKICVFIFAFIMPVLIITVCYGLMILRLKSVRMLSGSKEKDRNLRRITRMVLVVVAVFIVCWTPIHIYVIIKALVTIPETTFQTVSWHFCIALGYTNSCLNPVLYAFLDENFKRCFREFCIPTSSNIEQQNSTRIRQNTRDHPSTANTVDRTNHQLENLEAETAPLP
Chain of CB1 (h) (P21554 whole entry): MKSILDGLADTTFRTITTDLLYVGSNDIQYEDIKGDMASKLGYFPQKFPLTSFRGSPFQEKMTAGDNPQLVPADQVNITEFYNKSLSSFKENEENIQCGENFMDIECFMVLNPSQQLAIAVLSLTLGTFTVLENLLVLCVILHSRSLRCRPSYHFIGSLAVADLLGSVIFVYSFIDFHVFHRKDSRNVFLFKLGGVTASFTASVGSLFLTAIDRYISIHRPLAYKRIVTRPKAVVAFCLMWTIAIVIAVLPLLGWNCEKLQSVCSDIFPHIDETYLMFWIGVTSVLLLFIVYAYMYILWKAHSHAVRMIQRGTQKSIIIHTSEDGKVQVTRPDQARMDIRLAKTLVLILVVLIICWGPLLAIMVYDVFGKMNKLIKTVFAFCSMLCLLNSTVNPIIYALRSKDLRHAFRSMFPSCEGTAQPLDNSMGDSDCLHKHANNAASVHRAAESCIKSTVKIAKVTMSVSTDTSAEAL
Chain of AT1 (h) (P30556 whole entry): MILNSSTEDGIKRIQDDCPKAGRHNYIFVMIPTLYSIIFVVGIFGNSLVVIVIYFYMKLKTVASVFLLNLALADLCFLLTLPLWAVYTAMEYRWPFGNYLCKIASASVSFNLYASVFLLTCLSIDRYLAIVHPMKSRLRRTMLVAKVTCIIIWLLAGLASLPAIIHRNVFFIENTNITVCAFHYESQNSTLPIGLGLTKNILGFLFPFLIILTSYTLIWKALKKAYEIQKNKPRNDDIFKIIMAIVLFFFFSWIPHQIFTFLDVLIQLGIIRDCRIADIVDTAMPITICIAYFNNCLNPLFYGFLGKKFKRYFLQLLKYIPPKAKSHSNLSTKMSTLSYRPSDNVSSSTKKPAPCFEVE
Chain of M3 (h) (P20309 whole entry): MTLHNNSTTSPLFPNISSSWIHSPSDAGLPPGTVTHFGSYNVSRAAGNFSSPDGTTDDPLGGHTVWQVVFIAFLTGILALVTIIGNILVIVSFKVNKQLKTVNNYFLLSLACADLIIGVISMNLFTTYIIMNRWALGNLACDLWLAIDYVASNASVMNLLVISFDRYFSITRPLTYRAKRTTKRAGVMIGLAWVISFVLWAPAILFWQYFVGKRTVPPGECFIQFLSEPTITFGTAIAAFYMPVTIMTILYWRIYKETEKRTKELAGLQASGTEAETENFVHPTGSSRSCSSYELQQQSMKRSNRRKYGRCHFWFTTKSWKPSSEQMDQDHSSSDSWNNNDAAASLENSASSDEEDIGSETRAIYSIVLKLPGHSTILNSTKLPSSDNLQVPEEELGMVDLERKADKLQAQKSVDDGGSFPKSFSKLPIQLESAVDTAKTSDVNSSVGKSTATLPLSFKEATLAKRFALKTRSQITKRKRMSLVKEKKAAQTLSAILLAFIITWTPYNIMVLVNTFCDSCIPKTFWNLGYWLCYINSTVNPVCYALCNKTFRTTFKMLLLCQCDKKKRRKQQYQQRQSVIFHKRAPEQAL

With `CCCCCCC(C)(C)c1ccc([C@@H]2C[C@H](O)CC[C@H]2CCCO)c(O)c1` [CP 55940], the “nH Ref” value on CB1 (h) was determined as 0.8. Regarding `CNCC(=O)N[C@@H](CCCN=C(N)N)C(=O)N[C@H](C(=O)N[C@@H](Cc1ccc(O)cc1)C(=O)N[C@H](C(=O)N[C@@H](Cc1cnc[nH]1)C(=O)N1CCC[C@H]1C(=O)N[C@@H](C)C(=O)O)C(C)C)C(C)C` [saralasin], on AT1 (h), the “nH Ref” value worked out at 0.6.

On to `CN1[C@@H]2CC[C@H]1C[C@@H](OC(=O)c1cc(Cl)cc(Cl)c1)C2` [MDL 72222], for which the “nH Ref” value on 5-HT3 (h) came out at 0.8. With `C[N+]1(C)CCC(OC(=O)C(c2ccccc2)c2ccccc2)CC1.[I-]` [Compound 4-DAMP], on M3 (h), the “nH Ref” value was 1.1. For the compound `COc1cc(CC(C)N)c(OC)cc1I` (racemic) [(±)DOI], the “nH Ref” value on 5-HT2B (h) is reported as 1.0. Besides, the Ki on 5-HT2B (h) (read-out: Ki Ref) came to 3.1 nM. Consider “alpha-dendrotoxin (QPRRKLCILHRNPGRCYDKIPAFYYNQKKKQCERFDWSGCGGNSNRFKTIEECRRTCIG)”, for which, in the test with KV channel, the “nH Ref” value was 1.7. In addition, the Ki on KV channel (read-out: Ki Ref) was 0.2 nM. `COc1cc2nc(N3CCN(C(=O)c4ccco4)CC3)nc(N)c2cc1OC` [prazosin]: the “nH Ref” value in the test on alpha 1 (non-selective) was found to be 1.2.

On to `N=C(N)NCCC[C@@H](N)C(=O)N[C@@H](CCCNC(=N)N)C(=O)N1CCC[C@H]1C(=O)N1C[C@H](O)C[C@H]1C(=O)NCC(=O)N[C@@H](Cc1ccccc1)C(=O)N[C@@H](CO)C(=O)N[C@H](Cc1ccccc1)C(=O)N[C@@H](Cc1ccccc1)C(=O)N[C@@H](CCCNC(=N)N)C(=O)O` [NPC 567], for which the “nH Ref” value on B2 (h) is 0.9. Regarding `COC(=O)[C@@H]1[C@H]2C[C@H]3c4[nH]c5ccccc5c4CCN3C[C@@H]2CC[C@@H]1O` [yohimbine], in the test on alpha 2 (non-selective), the “nH Ref” value is given as 0.7.

For `CCCCC[C@H](O)/C=C/[C@H]1[C@H](O)CC(=O)[C@@H]1C/C=C\CCCC(=O)O` [PGE2], on EP4 (h), the “nH Ref” value worked out at 1.1. In the case of `CC(C)NCC(O)COc1ccc(CC(N)=O)cc1` (centres unmarked) [atenolol], the “nH Ref” value at beta 1 (h) is 0.9. `c1ccc2sc(C3(N4CCCCC4)CCCCC3)cc2c1` [BTCP]: the “nH Ref” value at dopamine transporter (h) was found to be 1.0. Turning to `COc1ccccc1CNCCCCCCNCCCCCCCCNCCCCCCNCc1ccccc1OC` [methoctramine], the “nH Ref” value at M2 (h) is listed as 0.9. With `NCCc1c[nH]c2ccc(O)cc12` [serotonin], the figures for the “nH Ref” value at 5-HT1B and on 5-HT6 (h) were 0.9 and 0.8, respectively. As to `CN1CCc2cc(Cl)c(O)cc2[C@@H](c2ccccc2)C1` [SCH 23390], the “nH Ref” value at D1 (h) came out at 0.9. On to `C[C@@H](NC(=O)[C@@H](N)Cc1ccc(O)cc1)C(=O)NCC(=O)N(C)[C@@H](Cc1ccccc1)C(=O)NCCO` [DAMGO], for which the “nH Ref” value on mu (MOP) (h) worked out at 1.0.

Turning to `CC(C)C[C@@H]1NC(=O)[C@H](C)NC(=O)[C@H]([C@@H](C)O)NC(=O)[C@H](CCC(=O)O)NC(=O)[C@@H]2CCCN2C(=O)[C@H](C)NC(=O)[C@H](CCCCN)NC(=O)[C@@H]2CSSC[C@@H](C(=O)N[C@@H](CCC(N)=O)C(=O)N[C@@H](CCC(N)=O)C(=O)N[C@@H](Cc3cnc[nH]3)C(N)=O)NC(=O)[C@H](CCCNC(=N)N)NC(=O)[C@H](CCCNC(=N)N)NC(=O)[C@H](C)NC(=O)[C@H](CSSC[C@H](N)C(=O)N[C@@H](CC(N)=O)C(=O)N2)NC1=O` [apamin], the “nH Ref” value in the test on SKCa channel came to 1.3.

With `CN1C(=O)CN=C(c2ccccc2)c2cc(Cl)ccc21` [diazepam], the “nH Ref” value with BZD (central) is reported as 1.1. On to `CC[C@H](NC(=O)c1c(C)c(-c2ccccc2)nc2ccccc12)c1ccccc1` [SB 222200], for which, on NK3 (h), the “nH Ref” value came out at 0.9. In the case of `COc1ccc2[nH]cc(CCNC(C)=O)c2c1` [melatonin], the “nH Ref” value on MT1 (ML1A) (h) worked out at 0.9. In the case of `O=C(c1ccc(F)cc1)C1CCN(CCn2c(=O)[nH]c3ccccc3c2=O)CC1` [ketanserin], the “nH Ref” value at 5-HT2A (h) stood at 1.0. Take (+)butaclamol: the “nH Ref” value on D2S (h) stood at 1.0.

For `COc1cccc(OC)c1-c1cc(C(=O)NC2(C(=O)O)C3CC4CC(C3)CC2C4)nn1-c1ccc(C(=O)N(CCCN)CCCN(C)C)cc1C(C)C` (centres unmarked) [(V), 2-{[1-{4-[(3-Amino-propyl)-(3-dimethylamino-propyl)-carbamoyl]-2-isopropyl-phenyl}-5-(2,6-dimethoxy-phenyl)-1H-pyrazole-3-carbonyl]-amino}-adamantane-2-carboxylic acid], the IC50 on NTR1 [1] was 8.95 nM; at NTR1 [2], 5.3 nM. For somatostatin-14, the “nH Ref” value in the test with sst (non-selective) amounted to 0.8. Moreover, the Ki at sst (non-selective) (read-out: Ki Ref) worked out at 0.11 nM.

Consider `C=C(C)[C@@H]1[C@H]2OC(=O)[C@@H]1[C@]1(O)C[C@H]3O[C@]34C(=O)O[C@H]2[C@]14C` [picrotoxinin], for which the “nH Ref” value with Cl-channel (GABA-gated) stood at 0.9. On to `COc1cccc(OC)c1-c1cc(C(=O)NC2(C(=O)O)C3CC4CC(C3)CC2C4)nn1-c1ccc(C(=O)N(C)CCCN(C)CCCN(C)C(=S)Nc2ccc(NC(=S)NCCCCCN(O)C(=O)CCC(=O)NCCCCCN(O)C(=O)CCC(=O)NCCCCCN(O)C(C)=O)cc2)cc1C(C)C` (centres unmarked) [(IIIf), 2-({5-(2,6-Dimethoxy-phenyl)-1-[2-isopropyl-4-(methyl-{3-[methyl-(3-{1-methyl-3-[4-(3-DFO-thioureido)-phenyl]-thioureido}-propyl)-amino]-propyl}-carbamoyl)-phenyl]-1H-pyrazole-3-carbonyl}-amino)-adamantane-2-carboxylic], for which the figures for the IC50 on NTR1 [1] and on NTR1 [2] were 17.5 nM and 3 nM, respectively.

As for IL-8, the “nH Ref” value with CXCR2 (IL-8B) (h) stood at 1.4. On to `NCCCC(=O)O` [GABA, γ-aminobutyric acid, reference compound], for which, in the test with GABA (non-selective), the “nH Ref” value was found to be 0.8. In the case of `CCCC[C@H](NC(=O)[C@H](CC(C)C)NC(=O)CNC(=O)[C@@H](NC(=O)[C@H](Cc1ccccc1)NC(=O)[C@H](CO)NC(=O)[C@@H](N)CC(=O)O)C(C)C)C(N)=O` [[Nleu10]-NKA (4-10)], at NK2 (h), the “nH Ref” value came out at 0.8.
